The text below walks through data of patent US4329339A, “Anthracyclinones and derivatives thereof” (Hoffmann-La Roche Inc., priority 1980, dated 1982).

In series [1] the test system is Candida albicans ATCC 10231. Description: MIC, agar streak method, Candida albicans ATCC 10231. Type of series: cell-based. To be noted: ATCC10231, Sabouraud dextrose agar. The source says:
(§1) | (2) Sabouraud dextrose agar

For series [2], the system named is Serratia marcescens IFO 12648. Description: MIC, agar streak method, Serratia marcescens IFO 12648. The format is cell-based. To be noted: IFO12648, Heart infusion agar. From the text: (§2) | (1) Heart infusion agar
Series [3] deals with Bacillus subtilis IAM 1027. Kind of series: MIC, agar streak method, Bacillus subtilis IAM 1027. The format is cell-based. To be noted: IAM1027, Heart infusion agar.
Source text: as §2

The subject of a further series is P388 leukaemia. Kind of series: Antitumour effect against P388 leukaemia in mice. Type of series: in vivo. To be noted: 1×10^6 P388 cells i.p., CDF1 mice. As for the experimental part: The anthracycline glycosides provided by the present invention were tested against P388 leukaemia in mice. When CDF1 mice are inoculated with 1×10^6 cells of P388 intraperitoneally and each of the antibiotics is administered intraperitoneally on days 1, 5 and 9, the survival time of the treated mice is prolonged as shown in Table 7 hereinafter.

Series [4] relates to Pseudomonas aeruginosa IFO 12689. Description: MIC, agar streak method, Pseudomonas aeruginosa IFO 12689. The format is cell-based. To be noted: IFO12689, Heart infusion agar.
Source text: as §2

In series [5] the test system is Proteus vulgaris IAM 1025. Description: MIC, agar streak method, Proteus vulgaris IAM 1025. Type of series: cell-based. To be noted: IAM1025, Heart infusion agar.
Source text: as §2

Series [6] can be described thus: Acute intraperitoneal toxicity in mice. To be noted: mouse, in vivo, ip, judged 72 hours after a single intraperitoneal injection.
The next series has as its system Sarcina lutea IAM 1009. Description: MIC, agar streak method, Sarcina lutea IAM 1009. The format is cell-based. To be noted: Micrococcus luteus, IAM1009, Heart infusion agar.
Source text: as §2

Series [7] concerns Staphylococcus aureus 209P IAM 1011. Kind of series: MIC, agar streak method, Staphylococcus aureus 209P IAM 1011. To be noted: Heart infusion agar. Type of series: cell-based.
Source text: as §2

A further series deals with Bacillus cereus Ro 179B. Description: MIC, agar streak method, Bacillus cereus Ro 179B. To be noted: RO179B, Heart infusion agar. The format is cell-based.
Source text: as §2

Series [8] concerns Saccharomyces cerevisiae ATCC 9763. Kind of series: MIC, agar streak method, Saccharomyces cerevisiae ATCC 9763. To be noted: ATCC9763, Sabouraud dextrose agar. Type of series: cell-based.
Source text: as §1

The subject of series [9] is Klebsiella pneumoniae IFO 3512. Kind of series: MIC, agar streak method, Klebsiella pneumoniae IFO 3512. To be noted: IFO3512, Heart infusion agar. The format is cell-based.
Source text: as §2

For series [10], the system named is Micrococcus flavus ATCC 10240. Kind of series: MIC, agar streak method, Micrococcus flavus ATCC 10240. Type of series: cell-based. To be noted: ATCC10240, Heart infusion agar.
Source text: as §2

For series [11], the system named is Staphylococcus epidermidis IFO 12993. Kind of series: MIC, agar streak method, Staphylococcus epidermidis IFO 12993. To be noted: IFO12993, Heart infusion agar. The format is cell-based.
Source text: as §2

The subject of series [12] is Mycobacterium smegmatis IFO 13167. Kind of series: MIC, agar streak method, Mycobacterium smegmatis IFO 13167. Type of series: cell-based. To be noted: Mycolicibacterium smegmatis, IFO13167, Heart infusion agar.
Source text: as §2

Series [13] concerns Staphylococcus aureus 209P Stf. Kind of series: MIC, agar streak method, Staphylococcus aureus 209P Stf. Type of series: cell-based.
In series [14] the test system is Candida tropicalis ATCC 13803. Description: MIC, agar streak method, Candida tropicalis ATCC 13803. The format is cell-based. To be noted: ATCC13803, Sabouraud dextrose agar.
Source text: as §1

The test system of series [15] is Escherichia coli NIHJ IFO 12734. Description: MIC, agar streak method, Escherichia coli NIHJ IFO 12734. The format is cell-based. To be noted: IFO12734, Heart infusion agar.
Source text: as §2

In series [16] the test system is Escherichia coli K-12 IAM 1264. Description: MIC, agar streak method, Escherichia coli K-12 IAM 1264. Type of series: cell-based. To be noted: IAM1264, Heart infusion agar.
Source text: as §2

Where [17] appears, read: 1.88 mg/kg/day i.p. on days 1, 5 and 9.
The mark [18] stands for this setting: 3.75 mg/kg/day i.p. on days 1, 5 and 9.
[19] abbreviates: 7.5 mg/kg/day i.p. on days 1, 5 and 9.
[20] abbreviates: 15 mg/kg/day i.p. on days 1, 5 and 9.
[21] abbreviates: Staphylococcus aureus 209P Stf, read-out: MIC.

In brackets after ≈: the same amount, converted by molar mass. Where two headings read alike, the source gives them in different places. A value given as a limit tells only on which side of the number the result lay.

The MIC is the lowest concentration that inhibits growth of the organism. Usually LD50 stands for the dose expected to kill half of the subjects tested. A low value points to greater toxicity. Take `COC(=O)C1c2cc3c(c(O)c2C(OC2CC(N(C)C)C(OC4CC(O)C(OC5CCC(=O)C(C)O5)C(C)O4)C(C)O2)CC1(O)CC(C)=O)C(=O)c1c(O)cccc1C3=O` (stereo not shown) [Sulfurmycin A]: the MIC is above 100 µg/mL in series [1]; above 100 µg/mL in [2]; 0.78 µg/mL (≈ 0.929 µM) in [3]; above 100 µg/mL in [4]; above 100 µg/mL in series [5]; 0.1 µg/mL (≈ 0.119 µM) in the series with Sarcina lutea IAM 1009. The minimal inhibitory concentration (MIC) in series [7] is 0.78 µg/mL (≈ 0.929 µM); against Bacillus cereus Ro 179B it was 0.2 µg/mL (≈ 0.238 µM); in series [8], above 100 µg/mL; in [9], above 100 µg/mL; in [10] it was 0.2 µg/mL (≈ 0.238 µM); in series [11], 3.12 µg/mL (≈ 3.71 µM). Besides, the MIC was 25 µg/mL (≈ 29.8 µM) in series [12]; 0.2 µg/mL (≈ 0.238 µM) in series [13] (Staphylococcus aureus, 209P); above 100 µg/mL in series [14]; above 100 µg/mL in [15]; above 100 µg/mL in [16]. The “Mean survival (T/C, %)” value was 124% in the series on P388 leukaemia (setting [17]), 134% in the series with P388 leukaemia (setting [18]), 144% in the series on P388 leukaemia (setting [19]) and 165% in the series with P388 leukaemia (setting [20]). In addition, in series [6], the LD50 at 72 h was around 100 mg/kg.
Regarding `COC(=O)C1c2cc3c(c(O)c2C(OC2CC(N(C)C)C(OC4CC5OC6CC(=O)C(C)OC6OC5C(C)O4)C(C)O2)CC1(C)O)C(=O)c1c(O)cccc1C3=O` (stereo not shown) [Auramycin B], the MIC in series [1] was above 100 µg/mL; in series [2], above 100 µg/mL; in series [3] it was 0.78 µg/mL (≈ 0.98 µM); in series [4] it was above 100 µg/mL; in series [5], above 100 µg/mL; in the series on Sarcina lutea IAM 1009, 0.05 µg/mL (≈ 0.0628 µM). Also, the MIC in series [7] was 0.39 µg/mL (≈ 0.49 µM); in the series on Bacillus cereus Ro 179B, 0.2 µg/mL (≈ 0.251 µM); in [8] it was above 100 µg/mL; in series [9], above 100 µg/mL; in series [10], 0.05 µg/mL (≈ 0.0628 µM); in series [11] it was 1.56 µg/mL (≈ 1.96 µM). For the same molecule, the MIC was 3.12 µg/mL (≈ 3.92 µM) in [12]; 0.39 µg/mL (≈ 0.49 µM) in series [13] (setting [21]); above 100 µg/mL in series [14]; above 100 µg/mL in series [15]; above 100 µg/mL in series [16]. Besides, the “Mean survival (T/C, %)” value in the series with P388 leukaemia (setting [17]) worked out at 113%; in the series with P388 leukaemia (setting [18]), 124%; with P388 leukaemia (setting [19]) it was 149%; in the series on P388 leukaemia (setting [20]), 196%. In addition, the median lethal dose (LD50) at 72 h in series [6] was around 100 mg/kg.
Take `COC(=O)C1c2cc3c(c(O)c2C(OC2CC(N(C)C)C(OC4CC(O)C(OC5CCC(=O)C(C)O5)C(C)O4)C(C)O2)CC1(C)O)C(=O)c1c(O)cccc1C3=O` (stereo not shown) [Auramycin A]: the minimal inhibitory concentration (MIC) in series [1] was above 100 µg/mL; in [2] it was above 100 µg/mL; in [3], 3.12 µg/mL (≈ 3.91 µM); in [4] it was above 100 µg/mL; in series [5] it was above 100 µg/mL; with Sarcina lutea IAM 1009, 0.1 µg/mL (≈ 0.125 µM). For the same molecule, the MIC in [7] was 1.56 µg/mL (≈ 1.96 µM); in the series with Bacillus cereus Ro 179B, 0.39 µg/mL (≈ 0.489 µM); in series [8], above 100 µg/mL; in series [9], above 100 µg/mL; in series [10] it was 0.1 µg/mL (≈ 0.125 µM); in [11] it was 3.12 µg/mL (≈ 3.91 µM). Also, the MIC in [12] is 6.25 µg/mL (≈ 7.83 µM); in series [13] (setting [21]) it was 0.78 µg/mL (≈ 0.978 µM); in series [14], above 100 µg/mL; in series [15] it was above 100 µg/mL; in series [16], above 100 µg/mL. Moreover, the “Mean survival (T/C, %)” value with P388 leukaemia (setting [17]) is recorded as 139%; with P388 leukaemia (setting [18]) it was 129%; with P388 leukaemia (setting [19]) it was 134%; in the series with P388 leukaemia (setting [20]), 170%. This molecule yielded a median lethal dose (LD50) at 72 h in series [6] of around 100 mg/kg.
As for `COC(=O)C1c2cc3c(c(O)c2C(OC2CC(N(C)C)C(OC4CC5OC6CC(=O)C(C)OC6OC5C(C)O4)C(C)O2)CC1(O)CC(C)=O)C(=O)c1c(O)cccc1C3=O` (stereo not shown) [Sulfurmycin B], the minimum inhibitory concentration (MIC) in series [1] is above 100 µg/mL; in [2], above 100 µg/mL; in series [3] it was 0.78 µg/mL (≈ 0.931 µM); in series [4] it was above 100 µg/mL; in [5], above 100 µg/mL; in the series on Sarcina lutea IAM 1009, 0.1 µg/mL (≈ 0.119 µM). Moreover, the minimal inhibitory concentration (MIC) in series [7] was 0.78 µg/mL (≈ 0.931 µM); with Bacillus cereus Ro 179B it was 0.39 µg/mL (≈ 0.465 µM); in [8], above 100 µg/mL; in series [9], above 100 µg/mL; in series [10], 0.1 µg/mL (≈ 0.119 µM); in [11], 1.56 µg/mL (≈ 1.86 µM). In addition, the MIC in [12] was 6.25 µg/mL (≈ 7.46 µM); in series [13] (Staphylococcus aureus, 209P) it was 0.39 µg/mL (≈ 0.465 µM); in series [14] it was above 100 µg/mL; in series [15] it was above 100 µg/mL; in series [16] it was above 100 µg/mL. In addition, the “Mean survival (T/C, %)” value in the series on P388 leukaemia (setting [17]) is recorded as 124%; in the series with P388 leukaemia (setting [18]) it was 124%; in the series on P388 leukaemia (setting [19]), 155%; in the series with P388 leukaemia (setting [20]), 165%. The LD50 at 72 h in [6] lay in the range of 25 to 50 mg/kg.
